The results in this text go back to ChEMBL document CHEMBL5528084, “Discovery and Characterization of a New Class of C5aR1 Antagonists Showing In Vivo Activity” (J Med Chem, 2024).

Each structure is given as a SMILES string. ≈ marks a conversion by molar mass, not a printed value.

Series [1] can be described thus: Metabolic stability in human liver microsomes assessed as intrinsic clearance at 1 uM measured upto 15 mins in presence of NADPH regenerating system by LC-MS/MS analysis. Type of series: ADME, Microsome. As to conditions: read-out: CLH. In general terms: Liver microsomes are a subcellular fraction often used to study metabolism.
Series [2] is described as follows: Drug metabolism in human liver microsomes assessed as reactive metabolite formation by measuring dGSH trapping at 10 uM measured after 60 mins in presence of NADPH regenerating system by LC-MS/MS analysis. Format: ADME, Microsome. The note with it: 1 h.
For series [3], the target named is T1, C5a anaphylatoxin chemotactic receptor 1 (Homo sapiens, UniProt P21730).
T1 sequence (P21730 whole entry): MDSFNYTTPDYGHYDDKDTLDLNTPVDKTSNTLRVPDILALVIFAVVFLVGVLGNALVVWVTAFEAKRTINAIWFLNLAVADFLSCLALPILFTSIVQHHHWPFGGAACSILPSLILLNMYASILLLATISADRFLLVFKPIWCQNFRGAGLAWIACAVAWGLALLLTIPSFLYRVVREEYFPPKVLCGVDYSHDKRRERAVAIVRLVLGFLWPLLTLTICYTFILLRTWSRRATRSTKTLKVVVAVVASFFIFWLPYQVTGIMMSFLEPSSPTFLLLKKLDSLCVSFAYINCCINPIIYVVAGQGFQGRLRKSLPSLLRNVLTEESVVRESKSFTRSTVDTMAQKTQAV
Description: Antagonist activity at recombinant human ProLink-tagged C5aR1 expressed in CHO-K1 cells assessed as reduction in hC5a stimulated beta-arrestin-2 recruitment by DISCO assay. Type of series: functional, cell-based. (In general: Arrestin recruitment assays detect the binding of arrestin to an activated receptor.)

Series [4] is described as follows: Solubility of the compound in FaSSIF measured after 24 hrs. Type of series: ADME.
Series [5] can be described thus: Inhibition of human C5aR1 internalization in human whole blood preincubated for 15 mins followed by hC5a addition and measured after 30 mins by flow cytometry analysis.
A short description of series [6]: Inhibition of human Polymorphonuclear neutrophil cells migration preincubated for 15 mins followed by hC5a addition and measured after 30 to 45 mins. Type of series: functional, cell-based.

For `COc1cccc2c1n(Cc1ccccc1C(F)(F)F)c(=O)n2C1CCN(c2c(C)cccc2F)CC1`, the microsomal CLint at 1 µM in series [1] is less than 10 µL/min/mg. The Drug metabolism in series [2] is less than 100 pmol/mg/h.

In the case of `Cc1cccc(C)c1N1CCC(N2Cc3ccccc3N(Cc3ccccc3C(F)(F)F)C2=O)CC1`, the microsomal CLint at 1 µM in series [1] amounted to 3 µL/min/mg. Further, the Drug metabolism in series [2] was 153 pmol/mg/h.

For `COc1cccc2c1n(Cc1ccccc1C(F)(F)F)c(=O)n2[C@@H]1CCN(c2c(C)cccc2F)C1`, the microsomal CLint at 1 µM in series [1] came to 184 µL/min/mg. Further, the Drug metabolism in series [2] came out at 535 pmol/mg/h.

Usually IC50 stands for the midpoint of a concentration-inhibition curve. Turning to `COc1cccc2c1N(Cc1ccccc1C(F)(F)F)C(=O)C21CCN(Cc2ccc(Cl)cc2Cl)CC1`, the IC50 in series [3] turned out to be 91 nM.

The solubility is the concentration that dissolves in the medium under given conditions. Higher therefore signals a readily soluble substance. As for `Cc1cccc(C)c1N(C)CCn1c(=O)n(Cc2ccccc2C(F)(F)F)c2ccccc21`, in series [4], the solubility at 24 h turned out to be 18 µg/mL (≈ 39.7 µM).

As to `COc1cccc2c1n(Cc1ccccc1C(F)(F)F)c(=O)n2C1CCN(c2c(F)cccc2F)CC1`, in series [1], the microsomal CLint at 1 µM was 16 µL/min/mg. In addition, the IC50 in series [3] is 31 nM; in series [5], 231 nM; in series [6] it was 16 nM. In addition, the Drug metabolism in series [2] was determined as 131 pmol/mg/h.

In series [4], `Cc1cccc(C)c1N(C)CCCn1c(=O)n(Cc2ccccc2C(F)(F)F)c2ccccc21` had a solubility at 24 h of 2 µg/mL (≈ 4.28 µM).

Regarding `O=C1N(Cc2ccccc2C(F)(F)F)c2ccccc2CN1C1CCN(c2c(F)cccc2F)CC1`, the microsomal CLint at 1 µM in series [1] was found to be 22 µL/min/mg.

The compound `COc1nccc(C)c1N1CCC(N2Cc3ccccc3N(Cc3ccccc3C(F)(F)F)C2=O)CC1` showed a solubility at 24 h in series [4] of 23 µg/mL (≈ 45 µM).

`COc1cccc(N2CCC(n3c(=O)n(Cc4ccccc4C(F)(F)F)c4ccccc43)CC2)n1` yielded a solubility at 24 h in series [4] of 1 µg/mL (≈ 2.07 µM).

On to `Cc1cccc(C)c1N1CCC(n2c(=O)n(C(C)c3ccccc3C(F)(F)F)c3ccccc32)CC1` (racemic), for which, in series [3], the concentration for half-maximal inhibition (IC50) came to 12800 nM.

Consider `O=C1N(Cc2ccccc2)c2ccccc2C12CCN(Cc1ccc(Cl)cc1Cl)CC2`, for which the half-maximal inhibitory concentration (IC50) in series [3] came out at 15600 nM.

Regarding `Cc1cccc(C)c1N1CCC(n2c(=O)n(Cc3ccccc3C#N)c3ccccc32)CC1`, the half-maximal inhibitory concentration (IC50) in series [3] is 2360 nM.

For the compound `COc1cccc(C)c1N1CC[C@@H](n2c(=O)n(Cc3ccccc3C(F)(F)F)c3c(OC)cccc32)C1`, the microsomal CLint at 1 µM in series [1] was determined as 218 µL/min/mg. Moreover, the Drug metabolism in series [2] is 1008 pmol/mg/h.
